No end group written: not given here.
What was measured:
APEC = assay: Kinetic time-inhibition assay of synthesized peptides; format: cell-based, E. coli; conditions: 12 mM, 12 h
Method: Peptides were added to the APEC suspension in a 96-well plate, and plate was incubated in TECAN Sunrise™ absorbance microplate reader at 37° C. with OD600 measurement set at every 30 min for 12 hr. The sequences in FIG. 7 are […] (SEQ ID NO: 5), […] (SEQ ID NO: 18), […] (SEQ ID NO: 21), […] (SEQ ID NO: 26), and […] (SEQ ID NO: 32).
The five common highly abundant peptides in CFSs of both L. rhamnosus GG and B. lactis Bb12 ([…] (SEQ ID NO:5), […] (SEQ ID NO:18), […] (SEQ ID NO:21), […] (SEQ ID NO:26) and […] (SEQ ID NO:32)) were synthesized (GenScript, NJ, USA) and tested for anti-APEC activity by conducting kinetic time-inhibition assay as described previously. Briefly, peptides dissolved in dimethyl sulfoxide (DMSO) at 200 mM concentrations were added (12 mM; final concentration of 6% DMSO) to APEC suspension (10^5 CFU/mL; LB media) in a 96-well plate. The plate was then incubated in TECAN Sunrise™ absorbance microplate reader (NC, USA) at 37° C. with OD600 measurement set at every 30 mins for 12 h. Untreated APEC (0% DMSO) and APEC treated with 6% DMSO were included as controls. […] Three independent experiments were conducted.

APEC O78 [1] = assay: Agar-well diffusion assay; format: cell-based, E. coli; conditions: whole culture, 24 h
Method: Agar-well diffusion assay: To determine the inhibitory activity of commensal and probiotic bacteria against APEC, agar-well diffusion assay was conducted as described previously. Briefly, LB agar plate was spread with 100 μL of APEC O78 (10^7 CFU/mL) and 100 μL of fully grown stationary phase whole cultures (adjusted to OD600: 1) of commensal and probiotic bacteria were aliquoted into the wells bored in the agar plate. The plate was incubated at 37° C., and zone of inhibition was measured at 12 h and 24 h post-incubation. The inhibitory activity of L. rhamnosus GG and B. lactis Bb12 was also tested with different culture volumes (200 μL, 150 μL and 50 μL) and against other APEC serotypes as described above. Assay was also conducted with cell-free supernatants (CF Ss) of L. rhamnosus GG and B. lactis Bb12 and supernatant-free L. rhamnosus GG and B. lactis Bb12 itself. CFSs were prepared by centrifugation of whole cultures at 10,000×g for 10 min at 4° C. followed by filtration through 0.22 μm filter. The supernatant-free cultures were washed once and resuspended in PBS to check the activity of L. rhamnosus GG and B. lactis Bb12 itself. Two independent experiments were conducted. […]

APEC O78 [2] = format: cell-based, E. coli
Method: Anti-APEC activity determination: The anti-APEC activity of peptides was determined in LB broth following CLSI guidelines. Briefly, overnight grown APEC O78 was adjusted to 5×10^5 CFU/mL concentration in fresh LB media. One-hundred microliters of APEC suspension was aliquoted into the wells of the 96-well plate. Peptides were added to the wells at 6 mM and 12 mM concentrations and incubated at 37° C. in TECAN Sunrise™ absorbance microplate reader with kinetic absorbance measurement set at every 30 mins for 12 h. Sterile media and DMSO (solvent) were used as controls. The growth inhibitory activity of the peptides against APEC was calculated using the formula: (OD600 DMSO treated well−OD600 peptide treated well)/OD600 DMSO treated well×100%.
The minimum inhibitory concentration (MIC) was determined for selected peptides (P1, P2, P3, and P4) using similar assay as above. Peptides were added to the wells of the 96-well plate at 6 mM, 9 mM, 12 mM, 15 mM, and 18 mM concentrations. The peptide concentration at which there is no visible APEC growth (no OD increase) was determined as MIC. Two independent experiments were conducted.
Arginine and lysine substituted peptide analogues: The non-essential amino acid residues identified in each peptide were substituted with arginine/lysine to test whether these substitutions enhance the anti-APEC activity of peptides. The MICs of arginine and lysine substituted peptide analogues ([…] (SEQ ID NO:37), […] (SEQ ID NO:38), […] (SEQ ID NO:39), KDENK (SEQ ID NO:41), PDEKK (SEQ ID NO:42), KDEKK (SEQ ID NO:43), KHTAPK (SEQ ID NO:45), VKTAPK (SEQ ID NO:46), VHTKPK (SEQ ID NO:47), and KKTKPK (SEQ ID NO:48)) were determined as above and compared with original peptides.

[3] = system: Salmonella enterica subsp. enterica serovar Enteritidis (SE); format: cell-based; conditions: subsp. enterica serovar Enteritidis (SE)
Method: MIC was determined by selecting peptide concentration at which there is no increased growth (no increase in OD), given indication of no ST growth. An independent repeat experiment was conducted.
Heat and protease tolerance of peptides: P1, P2, and P4 were heated for 6 minutes at 86° C. or treated with protease proteinase K, 200 μg/mL at 50° C. for 30 minutes. After which, the treated and/or heated peptides at their respective MICs were evaluated in the inhibition assay with Salmonella. The protocol from above was repeated in the Tecan with the same controls.
To analyze the perceived efficacy of arginine and lysine substitutes reported in previous studies, specific amino acid residues in P1 and P2 were replaced with lysine or arginine to test if the alliterations enhanced anti-Salmonella (ST and SE) activity. The MICs of the arginine or lysine substituted peptides ([…] (SEQ ID NO:37), […] (SEQ ID NO:38), […] (SEQ ID NO:39), KDENK (SEQ ID NO:41), PDEKK (SEQ ID NO:42), KDEKK (SEQ ID NO:43), KHTAPK (SEQ ID NO:45)) were determined as described early. Two independent experiments were conducted to ensure accuracy.

multiple APEC serotypes = format: cell-based, E. coli
Method: Anti-APEC spectrum determination: Peptides (P1, P2, and P3) were tested against multiple APEC serotypes/strains to determine their spectrum of activity. Peptides were added at their MICs and the growth inhibitory activity of the peptides was determined as described above.

[4] = system: various serovars of Salmonella; assay: PN3 and PN5 on various serovars of Salmonella; format: cell-based; conditions: at MBC, 12 hrs
Method: Salmonella serovars (5×10^5 CFU/mL) were treated with peptides and grown at 37° C. for 12 hrs. In addition, bacterial inhibition percentage was calculated by comparing with no peptide control. […] Red: Bactericidal, Green: Non bactericidal.
FIGS. 32A-32B show the growth inhibition percentage of various serovars of Salmonella after treating with minimal inhibitory concentrations of peptides. […] Salmonella serovars (5×10^5 CFU/mL) were treated with peptides and grown at 37° C. for 12 hrs. In addition, bacterial inhibition percentage was calculated by comparing with no peptide control.

Biofilm-embedded APEC = assay: Effect of PN peptides on biofilm embedded APEC; format: cell-based, E. coli; conditions: untreated 7.71 ± 0.72
Intracellular APEC = assay: Effect of PN peptides on intracellular APEC; format: cell-based, E. coli
[5] = system: various probiotic strains; format: cell-based; conditions: at MIC (PN3 12 mM, PN5 15 mM)
Method: FIGS. 16A-16B show the effect of the peptide on the growth of various probiotic strains after treating at their minimal inhibitory concentrations of 12 and 15 mM of PN3 and PN5, respectively. […] FIG. 16B the effect of 15 mM of PN5 peptide. The bacteria (5×10^5 CFU/mL) were treated with peptides and grown at 37° C. for 24 hrs in an anaerobic condition except for E. coli Nissel 1917 and E. coli G58-1, which has grown in aerobic conditions for 12 hrs. After incubation, serially dilute the culture and counted the CFU/mL Bacterial inhibition percentage was calculated by comparing with no peptide treated control.

ST = assay: Minimal bactericidal concentration of PN-3 and PN-5; format: cell-based, Salmonella enterica
Method: FIGS. 30A-30C show the growth pattern of ST with and without peptide at 9-21 mM concentration. […] The plate was incubated in a TECAN Sunrise™ absorbance microplate reader at 37° C., measuring the OD 600 set at every 30 mins for 12 hrs., followed by bacterial enrichment to determine the minimal bactericidal concentration log CFU/mL.

APEC O78 [6] = format: cell-based, E. coli; conditions: 12 h
Method: FIGS. 13A-13C show the growth pattern of APEC O78 with and without peptide at 3-21 mM concentration. […] Various concentrations of peptides were added to the APEC suspension (5×10^5 CFU/mL) in a 96-well plate. The plate was incubated in a TECAN Sunrise™ absorbance microplate reader at 37° C., measuring the OD 600 set at every 30 mins for 12 hrs. After 12 hrs. incubation the bacteria were serially diluted and plated to count CFU/mL and calculated the inhibitory percentage using (Control-treated)/treated*100.
FIGS. 14A-14B show the growth pattern of APEC O78, treated with a combination of peptides at 3-21 mM concentration with respect to no peptide control. […] The two peptides were added together to the APEC suspension (5×10^5 CFU/mL) in a 96-well plate. The plate was incubated at 37° C. in a TECAN Sunrise™ absorbance microplate reader, measuring the OD 600 set at every 30 mins for 12 hrs. After incubation, the bacteria were serially diluted and plated to measure CFU/mL and calculate the inhibitory percentage using (Control-treated)/treated*100.

APEC O78 [7] = assay: Resistance after 13 passages at 0.75×MIC; format: cell-based, E. coli
Method: FIGS. 18A-18B show the growth of APEC O78 at MIC of the peptides after growing the bacteria for 13 passages with a sublethal concentration (0.75×MIC) of peptides. […] The OD 600 was measured at every 30 mins for 12 hrs.

Substance: AESSDTNLVNAKAA [PN-2]
- Inhibition of APEC growth (APEC): slightly inhibitory

Substance: AFDNTDTSLDSTFKSA [PN-4]
- Inhibition of APEC growth (APEC): completely inhibitory

Substance: Bifidobacterium longum
- Zone of inhibition (APEC O78 [1]): 0.0 ± 0.0 mm

Substance: FSAVALSAVALSKPGHVNA [PN-1]
- Inhibition of APEC growth (APEC): did not affect the APEC growth

Substance: KDEKK [KDEKK]
- MIC (APEC O78 [2]): 12 mM

Substance: KDENK [KDENK]
- MIC (APEC O78 [2]): 9 mM

Substance: KHTAPK [KHTAPK]
- MIC (APEC O78 [2]): >18 mM

Substance: KKTKPK [KKTKPK]
- MIC (APEC O78 [2]): >18 mM

Substance: NPRRQERR
- MIC (APEC O78 [2]): 12 mM

Substance: NPRRQRRR
- MIC against SE [3]: >18 mM

Substance: NPRRRERR
- MIC (APEC O78 [2]): 12 mM

Substance: NPSRRERR
- MIC (APEC O78 [2]): 15 mM

Substance: PDEKK [PDEKK]
- MIC (APEC O78 [2]): 9 mM
- MIC against SE [3]: 12 mM

Substance: VHTAPK [Peptide P3, VHTAPK]
- MIC (APEC O78 [2]): 18 mM
- MIC50 (APEC O78 [2]): 16.2 mM
- Growth inhibition against APEC serotypes (multiple APEC serotypes): 39.4-88.4%

Substance: VHTKPK [VHTKPK]
- MIC (APEC O78 [2]): >18 mM

Substance: VKTAPK [VKTAPK]
- MIC (APEC O78 [2]): >18 mM

Substance: VQAAQAGDTKPIEV [PN-3]
- Bactericidal effect on eight Salmonella serotypes [4]: kill all the eight serotypes of Salmonella with no viable colony
- Biofilm-embedded APEC (Biofilm-embedded APEC): 4.21 ± 0.48 Log CFU/mL
- Intracellular APEC (Intracellular APEC; 0.25 X, untreated 2.98 ± 0.87): 2.64 ± 0.23 Log CFU/mL
- Intracellular APEC (Intracellular APEC; 0.75 X): 2.59 ± 0.30 Log CFU/mL
- Intracellular APEC (Intracellular APEC; 1 X): 2.50 ± 0.17 Log CFU/mL
- Intracellular APEC (Intracellular APEC; 1.5 X): 0.00 ± 0.00 Log CFU/mL
- Growth of B. longum, B. adolescentis, and B. theoiotamicron [5]: promoted the growth
- Growth of BB12, E. coli Nissel 1917 and E. coli G58-1 [5]: inhibited the growth
- Growth of LGG [5]: unaffected
- Minimal bactericidal concentration (ST): 21 mM
- Inhibition of APEC growth (APEC): completely inhibitory
- Minimal inhibitory concentration (APEC O78 [6]): 12 mM
- Bacterial resistance against the peptides (APEC O78 [7]): did not cause bacterial resistance

Substance: VTDTSGKAGTTKISNV [PN-5]
- Bactericidal effect on eight Salmonella serotypes [4]: killed all serotypes except Saintpaul
- Biofilm-embedded APEC (Biofilm-embedded APEC): 4.95 ± 0.07 Log CFU/mL
- Intracellular APEC (Intracellular APEC; 0.25 X, untreated 2.98 ± 0.87): 2.34 ± 0.11 Log CFU/mL
- Intracellular APEC (Intracellular APEC; 0.75 X): 2.30 ± 0.00 Log CFU/mL
- Intracellular APEC (Intracellular APEC; 1 X): 0.00 ± 0.00 Log CFU/mL
- Intracellular APEC (Intracellular APEC; 1.5 X): 0.00 ± 0.00 Log CFU/mL
- Growth of B. longum, B. adolescentis, and B. theoiotamicron [5]: promoted the growth
- Growth of BB12, E. coli Nissel 1917 and E. coli G58-1 [5]: inhibited the growth
- Growth of LGG [5]: slightly affected
- Minimal bactericidal concentration (ST): 21 mM
- Inhibition of APEC growth (APEC): completely inhibitory
- Minimal inhibitory concentration (APEC O78 [6]): 15 mM
- Bacterial resistance against the peptides (APEC O78 [7]): did not cause bacterial resistance

Reference: patent publication US20240181000A1, “LGG-DERIVED PEPTIDES AND METHODS OF USE THEREOF” (Ohio State Innovation Foundation, priority 2021, published 2024)
